Test results from patent publication US11660307B2, “Methods for treating SARS CoV-2 infections” (Gilead Sciences, Inc., priority 2020, dated 2023).
Read-outs that look alike come from different tables or passages of the source.

Legend:
[1] = A549 cytotoxicity analysis (CellTiter-Glo); format: cell-based; conditions: human
Description: The cytotoxicity of compounds was determined in A549 cells in the following manner. Compounds (200 nL) were spotted onto 384-well Grenier plates prior to seeding 5000 A549 cells/well in a volume of 40 μL culture medium. The plates were incubated at 37° C. for 48 hours with 5% CO2. On day 2, 40 μL of CellTiter-Glo (Promega) was added and mixed 5 times. Plates were read for luminescence on an Envision (PerkinElmer) and the CC50 (compound concentration for reducing 50% of luminescence signal as a measure of cell viability) were calculated using a nonlinear regression model (four parameters).

SARS-CoV-2 = assay: microbe, parasite or virus in culture; format: cell-based; conditions: Severe acute respiratory syndrome coronavirus 2, 48 h; read-out: SARS-CoV-2 (2-day) EC50
2019-nCoV = assay: Intravenous Compound 32 against 2019-nCoV in rhesus monkeys; format: in vivo; conditions: 10 mg/kg IV once daily, vs vehicle
[2] = A549 cells, 48 hours, CellTiter-Glo, read-out: A549 Cytotoxicity (2-day) CC50

| SMILES | CC50 at 48 h [1] [nM] | EC50 (SARS-CoV-2) [nM] | cumulative clinical scores (2019-nCoV) | disease symptoms (2019-nCoV) | CC50 at 48 h [1, 2] [nM] |
| --- | --- | --- | --- | --- | --- |
| N#C[C@@]1(c2ccc3c(N)ncnn23)O[C@H](CO)[C@@H](O)[C@H]1O | > 50000 | 869 ± 289 | – | – | – |
| CCC(CC)COC(=O)[C@H](C)N[P@](=O)(OC[C@H]1O[C@@](C#N)(c2ccc3c(N)ncnn23)[C@H](O)[C@@H]1O)Oc1ccccc1 [Compound 32, (S)-2-ethylbutyl 2-(((S)-(((2R,3S,4R,5R)-5-(4-aminopyrrolo[2,1-f][1,2,4]triazin-7-yl)-5-cyano-3,4-dihydroxytetrahydrofuran-2-yl)methoxy)(phenoxy)phosphoryl)amino)propanoate] | – | – | notably higher in vehicle-treated animals | less pronounced | – |
| CCC(CC)COC(=O)[C@H](C)N[P@@](=O)(OC[C@H]1O[C@@](C#N)(c2ccc3c(N)ncnn23)[C@H](O)[C@@H]1O)Oc1ccccc1 | – | 272 ± 75 | – | – | 17700 |
| CCC(CC)COC(=O)[C@H](C)N[P@](=O)(OC[C@H]1O[C@@](C#N)(c2ccc3c(N)ncnn23)[C@H](O)[C@@H]1O)Oc1ccccc1 [drawing 141] | – | 135 ± 20 | – | – | > 25200 |
